According to patent US4205163A, “Tylosin derivatives” (Sanraku-Ocean Co., Ltd., priority 1977, dated 1980):
Values after ≈ are worked out from the molar mass of the structure shown.

Assays:
Experiment in all cases: antimicrobial activity, broth dilution method
Assay type in all cases: cell-based
[1] = tested on: Streptococcus pyogenes MH-771; conditions: Streptococcus pyogenes, MH771, Streptococcus pyogenes MH-771, drug-resistant clinical isolate; read-out: minimum inhibitory concentration (MIC)
Protocol: (§1) Antimicrobial activity of the new antibiotics according to the present invention was measured on various pathogenic microorganisms by the broth dilution mehtod. Tab. […] The new antibiotics show a similar antimicrobial spectrum to that of tylosin as shown in Tab. 4. All the compounds have an excellent antimicrobial activity mainly on gram-positive bacteria. […] Test microorganisms with an asterisk mark (*) in Tab. 4 are all drug-resistant strains that were clinically isolated. More in detail, Staphylococcus aureus MS-8710 is resistant to tylosin, penicillin, tetracycline, erythromycin and leucomycin. Staphylococcus aureus MS-9931 is resistant to tylosin, penicillin, erythromycin, tetracycline, leucomycin, spiramycin and josamycin. And also Streptococcus piogenes is resistant to tylosin, erythromycin, oleandomycin and leucomycin.

[2] = tested on: Staphylococcus aureus MS-8710; conditions: Staphylococcus aureus, MS8710, Staphylococcus aureus MS-8710, drug-resistant clinical isolate; read-out: minimum inhibitory concentration (MIC)
Protocol: as §1

[3] = tested on: Staphylococcus aureus SMITH; conditions: Staphylococcus aureus, Staphylococcus aureus SMITH; broth dilution; read-out: minimum inhibitory concentration (MIC)
Protocol: as §1

Sarcina lutea ATCC 9341 = conditions: Micrococcus luteus, ATCC9341, Sarcina lutea ATCC 9341, read-out: minimum inhibitory concentration (MIC)
Protocol: as §1

[4] = tested on: Bacillus cereus ATCC 9634; conditions: Bacillus cereus, ATCC9634, Bacillus cereus ATCC 9634; broth dilution; read-out: minimum inhibitory concentration (MIC)
Protocol: as §1

[5] = tested on: Staphylococcus aureus FDA-209P; conditions: Staphylococcus aureus, FDA209P, Staphylococcus aureus FDA-209P; broth dilution; read-out: minimum inhibitory concentration (MIC)
Protocol: as §1

[6] = tested on: Staphylococcus aureus MS-9931; conditions: MS9931; Staphylococcus aureus MS-9931, drug-resistant clinical isolate; read-out: minimum inhibitory concentration (MIC)
Protocol: as §1

[7] = tested on: Staphylococcus aureus MS-9937; conditions: MS9937; Staphylococcus aureus MS-9937, drug-resistant clinical isolate; read-out: minimum inhibitory concentration (MIC)
Protocol: as §1

Compound | MIC [1] [µg/mL] | MIC [2] [µg/mL] | MIC [3] [µg/mL] | MIC (Sarcina lutea ATCC 9341) [µg/mL] | MIC [4] [µg/mL] | MIC [5] [µg/mL] | MIC [6] [µg/mL] | MIC [7] [µg/mL]
CCOC(=O)OC1C(C)OC(OCC2C=C(C)C=CC(=O)C(C)CC(CC=O)C(OC3OC(C)C(OC4CC(C)(O)C(O)C(C)O4)C(N(C)C)C3OC(C)=O)C(C)C(OC(C)=O)CC(=O)OC2CC)C(OC)C1OC (stereo not drawn) [Compound 6, 3,2'-diacetyl-4'"-carboethoxytylosin] | 100 (≈ 93.3 µM) | 100 (≈ 93.3 µM) | 0.78 (≈ 0.727 µM) | 0.39 (≈ 0.364 µM) | 0.78 (≈ 0.727 µM) | 0.78 (≈ 0.727 µM) | 100 (≈ 93.3 µM) | 100 (≈ 93.3 µM)
CCC1OC(=O)CC(O)C(C)C(OC2OC(C)C(OC3CC(C)(O)C(O)C(C)O3)C(N(C)C)C2OC(C)=O)C(CC=O)CC(C)C(=O)C=CC(C)=CC1COC1OC(C)C(OC(=O)COc2ccccc2)C(OC)C1OC (stereo not drawn) [Compound 5, 2'-acetyl-4'"-phenoxyacetyltylosin] | 100 (≈ 91.6 µM) | 100 (≈ 91.6 µM) | 0.78 (≈ 0.714 µM) | 0.39 (≈ 0.357 µM) | 0.78 (≈ 0.714 µM) | 0.78 (≈ 0.714 µM) | 100 (≈ 91.6 µM) | 100 (≈ 91.6 µM)
CCC(CC)C(=O)OC1C(C)OC(OC2C(C)OC(OC3C(CC=O)CC(C)C(=O)C=CC(C)=CC(COC4OC(C)C(O)C(OC)C4OC)C(CC)OC(=O)CC(OC(C)=O)C3C)C(O)C2N(C)C)CC1(C)O (stereo not drawn) [Compound 13, 3-acetyl-4"-α-ethyl-n-butyryltylosin] | 12.5 (≈ 11.8 µM) | 25 (≈ 23.7 µM) | 0.78 (≈ 0.738 µM) | 0.19 (≈ 0.18 µM) | 0.78 (≈ 0.738 µM) | 0.39 (≈ 0.369 µM) | 25 (≈ 23.7 µM) | 25 (≈ 23.7 µM)
CCC1OC(=O)CC(O)C(C)C(OC2OC(C)C(OC3CC(C)(O)C(O)C(C)O3)C(N(C)C)C2OC(C)=O)C(CC=O)CC(C)C(=O)C=CC(C)=CC1COC1OC(C)C(OC(=O)C(Cl)(Cl)Cl)C(OC)C1OC (stereo not drawn) [Compound 2, 2'-acetyl-4'"-trichloroacetyltylosin] | 200 (≈ 181 µM) | 200 (≈ 181 µM) | 1.56 (≈ 1.41 µM) | 0.39 (≈ 0.353 µM) | 1.56 (≈ 1.41 µM) | 1.56 (≈ 1.41 µM) | 100 (≈ 90.6 µM) | 100 (≈ 90.6 µM)
CCC1OC(=O)CC(OC(C)=O)C(C)C(OC2OC(C)C(OC3CC(C)(O)C(OC(=O)C(O)Cc4ccccc4)C(C)O3)C(N(C)C)C2O)C(CC=O)CC(C)C(=O)C=CC(C)=CC1COC1OC(C)C(O)C(OC)C1OC [Compound 26, 3-acetyl-4"-L-[(α-hydroxy-β-phenyl)propionyl]tylosin] | 12.5 (≈ 11.3 µM) | 50 (≈ 45.2 µM) | 0.78 (≈ 0.705 µM) | 0.39 (≈ 0.353 µM) | 0.78 (≈ 0.705 µM) | 0.78 (≈ 0.705 µM) | 50 (≈ 45.2 µM) | 50 (≈ 45.2 µM)
CCCC(C)C(=O)OC1C(C)OC(OC2C(C)OC(OC3C(CC=O)CC(C)C(=O)C=CC(C)=CC(COC4OC(C)C(O)C(OC)C4OC)C(CC)OC(=O)CC(O)C3C)C(O)C2N(C)C)CC1(C)O (stereo not drawn) [Compound 12, 4"-α-methyl-n-valeryltylosin] | 6.25 (≈ 6.16 µM) | 25 (≈ 24.6 µM) | 1.56 (≈ 1.54 µM) | 0.39 (≈ 0.385 µM) | 0.78 (≈ 0.769 µM) | 1.56 (≈ 1.54 µM) | 100 (≈ 98.6 µM) | 25 (≈ 24.6 µM)
CCC1OC(=O)CC(OC(C)=O)C(C)C(OC2OC(C)C(OC3CC(C)(O)C(O)C(C)O3)C(N(C)C)C2OC(C)=O)C(CC=O)CC(C)C(=O)C=CC(C)=CC1COC1OC(C)C(OC(=O)CCl)C(OC)C1OC (stereo not drawn) [Compound 3, 3,2'-diacetyl-4'"-monochloroacetyltylosin] | 100 (≈ 92.9 µM) | 100 (≈ 92.9 µM) | 1.56 (≈ 1.45 µM) | 0.78 (≈ 0.724 µM) | 1.56 (≈ 1.45 µM) | 1.56 (≈ 1.45 µM) | 100 (≈ 92.9 µM) | 100 (≈ 92.9 µM)
CCC1OC(=O)CC(OC(C)=O)C(C)C(OC2OC(C)C(OC3CC(C)(O)C(OC(=O)C(OC(C)=O)c4ccccc4)C(C)O3)C(N(C)C)C2O)C(CC=O)CC(C)C(=O)C=CC(C)=CC1COC1OC(C)C(O)C(OC)C1OC [Compound 19, 3-acetyl-4"-D-(α-acetoxyphenylacetyl)tylosin] | 25 (≈ 22 µM) | 100 (≈ 88.2 µM) | 0.78 (≈ 0.688 µM) | 0.78 (≈ 0.688 µM) | 0.78 (≈ 0.688 µM) | 1.56 (≈ 1.38 µM) | 100 (≈ 88.2 µM) | 100 (≈ 88.2 µM)
CCC1OC(=O)CC(O)C(C)C(OC2OC(C)C(OC3CC(C)(O)C(OC(=O)COc4ccccc4)C(C)O3)C(N(C)C)C2O)C(CC=O)CC(C)C(=O)C=CC(C)=CC1COC1OC(C)C(O)C(OC)C1OC (stereo not drawn) [Compound 44, 4"-phenoxyacetyltylosin] | 6.25 (≈ 5.95 µM) | 25 (≈ 23.8 µM) | 0.39 (≈ 0.371 µM) | 0.19 (≈ 0.181 µM) | 0.78 (≈ 0.743 µM) | 0.39 (≈ 0.371 µM) | 25 (≈ 23.8 µM) | 25 (≈ 23.8 µM)
